According to paper PMC12281424, “A Rac-specific competitive inhibitor of guanine nucleotide binding reduces metastasis in triple-negative breast cancer” (Cell Reports Medicine, 2025):

Columns and labels:
SAPK2b(h) = SAPK2b(h) (Homo sapiens, UniProt Q15759); test: Kinase Profiler; format: biochemical
Experimental: (§1) The kinase profiler was performed by the company Eurofins (Discovery, Panlab and Cerep).

RHOA = RHOA (Homo sapiens, UniProt P61586); test: GEF-stimulated nucleotide exchange; format: biochemical; set-up: Full-length RAC2, RHOG, RHOA and CDC42 were purified as previously described; made in house; p115RhoGEF DH-PH in insect cells (Sf21); details: 10^-5 M
Excerpt: Figure 4 A41 selectively impairs RAC protein activation (A) Representative surface plasmon resonance (SPR) sensograms of binding of immobilized RHOA or CDC42 with indicated increasing concentrations of A41 (N > 3). (B) Effect of A41 on GEF-stimulated RAC2, RHOG, RHOA, and CDC42 nucleotide exchange. […] Kobs is expressed as mean ± SEM. ∗p < 0.001 vs. control. (C) Effect of A41 on RAC1 G30S activation. […] The GEF TRIO was used to induce nucleotide exchange (N = 3). Data are expressed as mean ± SEM. (D) Immunoblot analysis and associated quantification of RAC-GTP level and total RAC expression in NIH-3T3 fibroblasts expressing RAC wild-type (RAC1 WT) or RAC1 oncomutants (RAC1 P29S and RAC1b) in the absence (Ctrl) and presence of A41 (10 μM). RAC activation was measured as the ratio of RAC-GTP to total RAC and expressed relative to Ctrl condition. Data are presented as mean ± SEM. ∗∗∗p < 0.001 vs. controls.
Full-length RAC1 carrying a 6xHis tag in C-terminus was purified as previously described.[64] […] Specific exchange activity toward RHOA determined by fluorescence kinetics is 0.04 s^−1M^−1.
Nucleotide exchange kinetics were measured by recording the increase in fluorescence following the association of mant-GTP on GDP-bound RHO protein or the decay in fluorescence following the dissociation of mant-GDP pre-loaded onto the RHO protein (λEx = 360 nm, λEm = 440 nm) as previously described.[39] […]

CT26 cells = test: Colorectal circulating tumor cells model (pulmonary metastasis); format: in vivo, mouse; details: 25 mg/kg i.p. daily day 0 to 14
Experimental: 7-8 weeks-old BALB/c female mice received an intravenous injection through the caudal vein of the cell suspension (CT26 cells, ATCC® CCL-2638™). The volume needed for implantation was loaded in insulin syringes (2x10^5 cells) in 100 μL of phosphate-buffered saline). The anesthetized mice were placed on a warming blanket and were monitored (breathing) until they wake up.

ALK(h) = ALK(h) (Homo sapiens, UniProt Q9UM73); test: Kinase Profiler; format: biochemical
Experimental: as §1

ALK1(h) = ALK1(h) (Homo sapiens, UniProt P37023); test: Kinase Profiler; format: biochemical
Sequence of ALK1(h) (P37023 22-503): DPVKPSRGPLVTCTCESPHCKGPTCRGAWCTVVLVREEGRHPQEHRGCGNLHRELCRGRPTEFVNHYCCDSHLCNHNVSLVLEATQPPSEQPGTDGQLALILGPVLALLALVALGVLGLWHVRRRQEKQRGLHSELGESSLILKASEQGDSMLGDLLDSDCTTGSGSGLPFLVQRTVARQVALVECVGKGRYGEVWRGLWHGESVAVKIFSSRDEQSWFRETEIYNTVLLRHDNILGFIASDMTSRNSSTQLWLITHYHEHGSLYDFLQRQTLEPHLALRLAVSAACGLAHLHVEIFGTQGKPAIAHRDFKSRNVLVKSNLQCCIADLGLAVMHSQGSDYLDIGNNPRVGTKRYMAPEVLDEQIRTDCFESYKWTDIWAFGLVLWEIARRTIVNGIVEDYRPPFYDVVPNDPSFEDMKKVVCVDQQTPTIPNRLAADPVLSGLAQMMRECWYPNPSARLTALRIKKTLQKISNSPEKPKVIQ
Experimental: as §1

Sequence of ALK(h) (Q9UM73 19-1620): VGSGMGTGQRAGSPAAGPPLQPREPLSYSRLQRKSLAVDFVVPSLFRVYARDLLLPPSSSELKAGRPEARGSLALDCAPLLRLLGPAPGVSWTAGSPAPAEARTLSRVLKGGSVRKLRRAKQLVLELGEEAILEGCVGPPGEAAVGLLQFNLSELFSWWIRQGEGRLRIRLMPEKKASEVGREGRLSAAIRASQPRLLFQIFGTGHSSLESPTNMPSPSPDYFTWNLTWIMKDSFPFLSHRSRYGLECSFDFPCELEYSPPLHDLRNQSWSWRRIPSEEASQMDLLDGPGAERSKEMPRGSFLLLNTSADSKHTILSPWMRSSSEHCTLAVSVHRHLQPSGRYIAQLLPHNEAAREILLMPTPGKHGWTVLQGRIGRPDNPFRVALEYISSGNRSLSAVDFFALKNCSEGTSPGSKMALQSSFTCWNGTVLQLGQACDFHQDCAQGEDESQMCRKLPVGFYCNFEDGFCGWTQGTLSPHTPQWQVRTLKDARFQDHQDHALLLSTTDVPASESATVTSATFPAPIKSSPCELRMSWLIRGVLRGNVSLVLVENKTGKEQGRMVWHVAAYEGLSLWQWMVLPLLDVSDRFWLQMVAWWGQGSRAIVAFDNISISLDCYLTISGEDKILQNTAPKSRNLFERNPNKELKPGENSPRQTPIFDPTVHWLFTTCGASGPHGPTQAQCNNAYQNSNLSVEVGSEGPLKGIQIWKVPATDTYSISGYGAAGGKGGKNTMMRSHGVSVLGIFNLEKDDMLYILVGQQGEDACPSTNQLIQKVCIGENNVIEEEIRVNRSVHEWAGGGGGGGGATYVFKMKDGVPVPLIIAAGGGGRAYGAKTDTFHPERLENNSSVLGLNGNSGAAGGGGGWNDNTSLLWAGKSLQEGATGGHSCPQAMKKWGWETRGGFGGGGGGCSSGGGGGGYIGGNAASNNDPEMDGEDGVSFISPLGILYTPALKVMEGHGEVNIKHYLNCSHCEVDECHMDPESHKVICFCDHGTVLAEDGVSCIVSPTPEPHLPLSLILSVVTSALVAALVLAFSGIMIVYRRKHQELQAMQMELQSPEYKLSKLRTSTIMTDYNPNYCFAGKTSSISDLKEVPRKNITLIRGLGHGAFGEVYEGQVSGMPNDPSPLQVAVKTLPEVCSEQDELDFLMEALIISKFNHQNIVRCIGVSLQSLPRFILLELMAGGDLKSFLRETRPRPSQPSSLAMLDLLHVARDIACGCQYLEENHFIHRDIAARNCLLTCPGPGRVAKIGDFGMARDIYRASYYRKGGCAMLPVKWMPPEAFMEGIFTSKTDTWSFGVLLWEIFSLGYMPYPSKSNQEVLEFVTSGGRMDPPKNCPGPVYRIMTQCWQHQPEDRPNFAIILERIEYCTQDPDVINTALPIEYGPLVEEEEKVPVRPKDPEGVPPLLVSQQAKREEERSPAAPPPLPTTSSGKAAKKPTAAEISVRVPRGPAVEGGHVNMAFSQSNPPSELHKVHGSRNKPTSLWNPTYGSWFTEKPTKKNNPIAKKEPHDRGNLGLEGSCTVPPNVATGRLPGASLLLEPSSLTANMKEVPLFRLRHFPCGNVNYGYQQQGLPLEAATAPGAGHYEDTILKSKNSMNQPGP
Sequence of RHOA (P61586 whole entry): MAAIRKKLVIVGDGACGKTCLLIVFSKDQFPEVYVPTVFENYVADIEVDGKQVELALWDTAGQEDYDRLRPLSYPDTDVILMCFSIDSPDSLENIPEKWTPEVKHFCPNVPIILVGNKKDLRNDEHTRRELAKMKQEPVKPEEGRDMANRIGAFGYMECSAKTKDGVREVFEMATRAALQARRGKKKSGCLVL
Sequence of SAPK2b(h) (Q15759 whole entry): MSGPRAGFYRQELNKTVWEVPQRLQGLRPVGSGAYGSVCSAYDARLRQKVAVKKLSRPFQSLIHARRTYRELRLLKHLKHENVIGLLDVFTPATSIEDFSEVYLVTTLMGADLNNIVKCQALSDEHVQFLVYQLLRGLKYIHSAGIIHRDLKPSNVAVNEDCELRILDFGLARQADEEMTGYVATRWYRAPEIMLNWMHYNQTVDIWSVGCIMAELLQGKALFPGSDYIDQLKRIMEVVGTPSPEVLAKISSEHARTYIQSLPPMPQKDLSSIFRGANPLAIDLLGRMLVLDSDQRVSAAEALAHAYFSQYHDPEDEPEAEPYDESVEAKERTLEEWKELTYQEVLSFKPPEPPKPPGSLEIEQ

SMILES: COc1ccc(OC)c(NS(=O)(=O)c2ccc(NC(=O)CCSc3ccc(C)cc3)cc2)c1 [Compound A41]
- Activity(%) (SAPK2b(h)): 107%
- activation of RHOA induced by p115RhoGEF DH-PH (RHOA): did not change the activation
- animal survival (CT26 cells): improvement in animal survival
- development of pulmonary metastases (CT26 cells): significantly reduced the development of pulmonary metastases
- Activity(%) (ALK(h)): 82%
- Activity(%) (ALK1(h)): 102%
